Experimental data from patent publication US20240374681A1, “Formulation for Co-Administration of Q-GRFT and Tenofovir” (priority 2021, published 2024).

Legend:
[1] = test system: Caco-2 monolayer cell model; experiment: Caco-2 monolayer permeability of paracellular marker [^14C]-Mannitol
Excerpt: Caco-2 Monolayer Cell Model Permeability Study Procedure: The procedure was adapted from a previously reported method to build a Caco-2 monolayer cell model and perform the permeability studies. Cell passages 34 to 42 were used to build the model in different batches. For preparation, a total of 3×10^5 Caco-2 cells were dispensed on the apical side of each Transwell filter. The model would be ready after 21-29 days of culture. The model was validated with a paracellular marker, [^14C]-Mannitol. […] To study the permeability, the sample solution was gently dispensed on the apical side of the model and cultured at 37° C. for 2 hours. […] The apparent permeability coefficients (Papp) were calculated using Equation 1, below.
[formula] [formula] • Papp (cm/sec): the apparent permeability coefficient;
(ng/sec): the rate of drug transportation; A (cm^2): the surface area of the cell layers; C0 (ng/ml): The initial drug concentration in the donor side.

[2] = test system: Caco-2 monolayer cell model; details: reported literature value; cited from earlier work
[3] = test system: Caco-2 monolayer cell model; details: 2-hour treatment, threshold 165 Ω*cm^2
Experimental: Caco-2 Monolayer Cell Model Toxicity Study Procedure: Passages 33 to 43 of the Caco-2 cell line were used in the studies. The Caco-2 cells were cultured in complete Dulbecco's modified Eagle's medium (DMEM) [500 ml of DMEM (Corning) containing 50 ml fetal bovine serum (FBS; Gibco Qualified One-Shot, Thermo Scientific) and 5 ml PEST (penicillin 10,000 U/ml-streptomycin, 10,000 ug/ml-glutamine 29.2 mg/ml solution (100×); Gibco, Fisher Scientific)] at 37° C. with 5% CO2 incubation. […] After overnight incubation, the samples were added to the wells and treated for 24 hours. […] A toxicity study utilizing the Caco-2 model was performed prior to permeability studies to examine the safety of the complete liquid formulations. Samples were applied on the apical side of the Transwell. After 2-hour treatments, the treated samples were discarded and washed off twice with HBSS. […] TEER values were also measured before and after the treatments as supplemental criteria for the toxicity study.

[4] = Q-GRFT content determination by HPLC (incl. stability study); type: physicochemical; details: molar ratios 3, 6, 12 to Q-GRFT monomer, 40° C./75% RH for 3 months
Experimental: Stability Study Procedure: Individual enema bottles containing 125 ml of solution were stored under three conditions (4° C.; 25° C./60% RH; 40° C./75% RH) and monitored over time (24 months for 4° C. and 25° C./60% RH; 6 months for 40°° C./75% RH). At each time point (1, 2, 3, 6, 9, 12, 18, and 24 months), physicochemical characteristics were evaluated and compared against the critical quality assessments (CQAs) according to the following procedures.
(§1) Q-GRFT Content Determination by High-Performance Liquid Chromatography: The High-Performance Liquid Chromatography (HPLC) method for measuring Q-GRFT content was previously developed and reported elsewhere. The samples were diluted 2 times with Milli-Q water. The Q-GRFT content was detected by an HPLC system (Waters Corporation, Milford, MA) equipped with an auto-injector (model 717), a quaternary pump (model 600), and a photodiode array detector (model 2996)) with a C5 column (Jupiter 5 μm 300 Å, 250×4.6 mm) and a C5 pre-column (Security Guard Standard Widepore).
Lyophilization: For samples with cryoprotectants, sugar/sugar polyol powders were weighed and added in individual scintillation vials. The Q-GRFT stock solution was then added. The sample vials were mixed until the powder dissolved. Next, the vials containing sample solution (with or without the addition of cryoprotectants) were transferred to a −80° C. freezer to freeze overnight. Until lyophilization, the samples were tilted and placed in the beaker, attached to a pre-set lyophilizer (Labconco FreeZone Freeze Dry System, Kansas City, MO). The lyophilizing process was set to maintain the environment at −50° C. and 0.070 mBar. Sample vials were measured for their weights after lyophilizing for at least two days. Once the weights were stable, indicating no more water was removed, the lyophilized powder was taken out of the vials and ground with a mortar and pestle. The lyophilized powder would be packed in a tube at 4° C. (unless other conditions were indicated) until further characterizations.
as §1, with “Chromatography (HPLC):” for “Chromatography:”, “HPLC” for “High-Performance Liquid Chromatography (HPLC)”, “measuring the” for “measuring”, “was” for “was previously”, “developed in-house” for “developed”, “previously.” for “elsewhere.”

[5] = pH measurement of enema formulations / reconstituted solutions (pH meter); type: physicochemical; details: stock solution in 1× PBS
Excerpt: To investigate if the vehicle strength impacts the pH and osmolality of formulations, PBS-base was used directly (1× PBS) or diluted (50% PBS) with or without the addition of TFV and Q-GRFT. To study if the vehicle composition impacts the pH and osmolality of formulations, PBS-base and saline-base were used directly (1× PBS; 1× saline) with the addition of TFV and Q-GRFT. Three formulations (50% PBS, 1× PBS, 1× saline; all with the addition of TFV and Q-GRFT) were chosen to further evaluate the effects of pH adjusting agents on osmolality. For the final screening, both vehicles (PBS-base and saline-base) were diluted into three strengths, 30%, 35%, and 40% with the addition of TFV and Q-GRFT. pH and osmolality were measured as in-line checkpoints for screening and quality assurance.
Manufacturing Procedure: Stock buffer (10× PBS or Saline) was diluted with Milli-Q water to a solution with lower osmolality than desired (˜40 mOsm/kg lower). […] Finally, Q-GRFT stock solution (in 1× PBS) was measured and added to the solution to make the final product. […]
pH: The pH was determined using a pH meter (XL150 pH Benchtop Meters, Fisher Scientific). […]
pH: The pH was determined by a pH meter (XL150 pH Benchtop Meters, Thermo Fisher Scientific; Waltham, MA). […] The pH was recorded only after the value stayed stable.

[6] = test system: human colon tissue; experiment: Ex vivo human colon tissue permeability of Q-GRFT in Ussing chamber; details: all time points, LLOQ of the HPLC method
Experimental: Permeability and Toxicity Assessment with the Ex Vivo Human Colon Tissue: Tissue specimens were collected from patients 18-75 years old. A section of each tissue was retained for histological evaluation with hematoxylin and eosin (H&E) staining assay. After removal of the excess stromal tissue, the epithelial tissue was placed between the donor and receptor compartments of the Ussing chamber apparatus with the epithelial side toward the donor compartment. This set-up was maintained at 37° C. throughout the experiment. Both donor and receptor compartments were filled with KRBG during system calibration. Then the KRBG buffer from the donor sides was replaced with sample solutions. 50 μL was removed from the donor compartment at the beginning and the end of the experiments. At predetermined time points (Time 0, 15, 30, 45, 60, 75, 90, 120 minutes), 200 μL was removed from the receptor chamber and the same volume of fresh KRBG was added for replacement. These samples were held at 4° C. until analyzed by UPLC (for TFV) or HPLC (for Q-GRFT). The Papp values were calculated using Equation 1 as described above. All tissues, including pre-treatment and post-treatment tissues from all groups, were processed for paraffin sectioning. The tissue sections were embedded into paraffin blocks using the Leica EG 1160 embedding station. […]

[7] = molecular target: HIV-1 gp120CM; experiment: gp120 binding bioactivity by ELISA
Experimental: Bioactivity Determination using Enzyme-linked Immunosorbent Assay (ELISA): An ELISA was applied to evaluate the gp120 binding activity of select Q-GRFT samples. Nunc MaxiSorp 96-well plates were used for this experiment. The MaxiSorp surface is a hydrophilic/hydrophobic mix that binds to a wide range of biomolecules. In short, gp120 was bound to the wells of a 96-well plate overnight at 4° C. The HIV-1 gp120CM was purchased from Kentucky Bioprocessing (KBP; Part #C-1312). After overnight incubation, the solution of gp120 was removed, and a blocking solution (1× PBS-T [PBS with 0.05% Tween 20]) was applied for two hours at room temperature. After that, the wells were washed and incubated with various dilutions of Q-GRFT samples for one hour. Gp120 binding was detected by applying goat anti-Q-GRFT primary antibody (one-hour incubation) and HRP-labeled rabbit anti-goat secondary antibody (one-hour incubation), sequentially. […] Gp120 binding was measured at 450 nm.
Bioactivity Determination by Enzyme-linked Immunosorbent Assay (ELISA): An ELISA was adapted and applied to evaluate the gp120 binding activity of the Q-GRFT samples. […] Gp120 binding was detected by applying goat anti-Q-GRFT primary antibody (one-hour incubation) and HRP-labeled rabbit anti-goat secondary antibody (one-hour incubation), sequentially. […] Gp120 binding was measured at 450 nm with a plate reader.

Question: With `CCCCCCCCCCCCOS(=O)(=O)[O-].[Na+]` [20% SDS (positive control)] as the molecule, how does the “Paracellular marker [^14C]-Mannitol: Papp” value ([1]; Caco-2) read?
Answer: 30 ± 1 ×10⁻⁶ cm/s

Question: Which results are given for `OCC(O)C(O)C(O)C(O)[14CH2]O` (stereo not drawn) [[^14C]-Mannitol]?
Answer: Papp of [^14C]-Mannitol, reported value [2]: 0.12 ×10⁻⁶ cm/s; Papp of [^14C]-Mannitol (model validation) ([1]; tested using this Caco-2 monolayer cell model): 0.33 ×10⁻⁶ cm/s

Question: For `C=O` [formaldehyde], which “TEER value after treatment” value [3] is on record?
Answer: < 165 Ω*cm^2

Question: Which “Cryoprotecting effect on Q-GRFT content of lyophilized powder” value (“Cryoprotecting effect on Q-GRFT content” below) [4] does the source give for `OC[C@@H](O)[C@@H](O[C@@H]1O[C@H](CO)[C@H](O)[C@H](O)[C@H]1O)[C@H](O)[C@@H](O)CO` [lactitol] here?
Answer: no protection

Question: With `OC[C@@H](O)[C@@H](O[C@H]1O[C@H](CO)[C@@H](O)[C@H](O)[C@H]1O)[C@H](O)[C@@H](O)CO` [maltitol] as the molecule, how does the “Cryoprotecting effect on Q-GRFT content” value [4] read?
Answer: concentration-dependent protection

Question: Which “Cryoprotecting effect on Q-GRFT content” value [4] does the source give for `OC[C@H]1O[C@@](CO)(O[C@H]2O[C@H](CO)[C@@H](O)[C@H](O)[C@H]2O)[C@@H](O)[C@@H]1O` [sucrose] here?
Answer: concentration-dependent protection

Question: Which “Cryoprotecting effect on Q-GRFT content” value [4] does the source give for `OC[C@H]1O[C@H](O[C@H]2O[C@H](CO)[C@@H](O)[C@H](O)[C@H]2O)[C@H](O)[C@@H](O)[C@@H]1O` [trehalose] here?
Answer: concentration-independent protection

Question: With “Q-GRFT: engineered form of griffithsin with increased stability against oxidation; stock solution in 1× PBS” as the molecule, how does the “pH of Q-GRFT stock solution” value [5] read?
Answer: around 7.39

Question: What about the “Q-GRFT content from the receptor sides” value [6] of the same molecule?
Answer: < 1 µg/mL

Question: What about the “EC50 gp120 binding (ELISA)” value ([7]; after lyophilization and reconstitution, Example 2 (FIG. 18)) of the same molecule?
Answer: 7.02 ng/mL

Question: And the “EC50 gp120 binding (ELISA)” value ([7]; reference solution, Example 1 (FIG. 11))?
Answer: 11.70 ng/mL
